Patent publication US10168342B2, “Lipid probes and uses thereof” (THE SCRIPPS RESEARCH INSTITUTE, priority 2015, dated 2019)
Read-outs that look alike come from different tables or passages of the source.

Legend:
[1] = target: AEA-DA lipid probe targets in Neuro2a cells (Mus musculus, UniProt P29391)
[2] = target: AEA-DA lipid probe targets in Neuro2a cells (Mus musculus, UniProt P52293)
[3] = target: AEA-DA lipid probe targets in Neuro2a cells (Mus musculus, UniProt P57716)
[4] = target: T1, AEA-DA lipid probe targets in Neuro2a cells (Mus musculus, UniProt Q505D7); settings: for SILAC ratio, OPA3 (Q505D7): Neuro2a cells, AEA-DA probe
T1 sequence (Q505D7 1-179): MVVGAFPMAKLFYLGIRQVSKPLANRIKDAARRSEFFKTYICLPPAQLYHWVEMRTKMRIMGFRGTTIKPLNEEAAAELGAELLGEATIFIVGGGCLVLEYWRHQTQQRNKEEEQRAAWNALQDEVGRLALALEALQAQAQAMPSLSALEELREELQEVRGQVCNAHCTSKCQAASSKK

[5] = target: T2, AEA-DA lipid probe targets in Neuro2a cells (Mus musculus, UniProt Q60692)
T2 sequence (Q60692 1-238): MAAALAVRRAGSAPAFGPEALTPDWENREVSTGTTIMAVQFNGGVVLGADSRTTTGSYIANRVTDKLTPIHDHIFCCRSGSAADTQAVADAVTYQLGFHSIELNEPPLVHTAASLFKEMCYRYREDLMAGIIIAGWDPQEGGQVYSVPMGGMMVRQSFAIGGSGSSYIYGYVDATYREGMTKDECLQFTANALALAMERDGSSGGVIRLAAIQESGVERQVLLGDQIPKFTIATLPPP

[6] = target: T3, AEA-DA lipid probe targets in Neuro2a cells (Mus musculus, UniProt Q6QD59)
T3 sequence (Q6QD59 1-228): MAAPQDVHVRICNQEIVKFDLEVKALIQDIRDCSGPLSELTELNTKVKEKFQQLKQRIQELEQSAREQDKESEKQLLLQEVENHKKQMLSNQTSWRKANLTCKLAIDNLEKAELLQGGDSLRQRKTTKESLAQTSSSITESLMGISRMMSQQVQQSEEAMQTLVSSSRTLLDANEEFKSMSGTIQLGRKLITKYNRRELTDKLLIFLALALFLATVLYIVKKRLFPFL

[7] = target: T4, AEA-DA lipid probe targets in Neuro2a cells (Mus musculus, UniProt Q8R404)
T4 sequence (Q8R404 1-119): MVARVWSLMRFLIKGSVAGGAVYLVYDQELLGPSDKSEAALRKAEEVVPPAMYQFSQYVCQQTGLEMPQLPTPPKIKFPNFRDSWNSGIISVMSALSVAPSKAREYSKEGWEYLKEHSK

[8] = target: T5, AEA-DA lipid probe targets in Neuro2a cells (Mus musculus, UniProt Q91XD7)
T5 sequence (Q91XD7 30-420): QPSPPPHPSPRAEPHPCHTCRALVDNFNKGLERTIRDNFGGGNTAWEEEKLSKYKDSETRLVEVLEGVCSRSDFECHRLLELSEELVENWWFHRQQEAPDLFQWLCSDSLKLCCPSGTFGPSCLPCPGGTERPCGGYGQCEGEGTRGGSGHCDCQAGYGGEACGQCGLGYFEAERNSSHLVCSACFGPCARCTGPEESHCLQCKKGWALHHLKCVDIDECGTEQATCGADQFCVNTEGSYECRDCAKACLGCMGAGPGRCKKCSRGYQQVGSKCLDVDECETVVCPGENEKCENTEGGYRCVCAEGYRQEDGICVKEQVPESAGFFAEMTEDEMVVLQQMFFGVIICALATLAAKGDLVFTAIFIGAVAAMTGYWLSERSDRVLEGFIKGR

[9] = target: T6, AEA-DA lipid probe targets in Neuro2a cells (Mus musculus, UniProt Q9CQM2)
T6 sequence (Q9CQM2 1-212): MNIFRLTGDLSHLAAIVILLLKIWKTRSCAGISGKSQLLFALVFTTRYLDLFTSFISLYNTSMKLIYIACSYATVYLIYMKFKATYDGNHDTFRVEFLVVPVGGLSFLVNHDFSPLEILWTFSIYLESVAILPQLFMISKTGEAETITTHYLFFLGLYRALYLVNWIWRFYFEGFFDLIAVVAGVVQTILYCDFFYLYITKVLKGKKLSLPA

[10] = target: AEA-DA lipid probe targets in Neuro2a cells (Mus musculus, UniProt Q9CYN2)
Sequence of AEA-DA lipid probe targets in Neuro2a cells (Mus musculus, UniProt Q9CYN2) (Q9CYN2 whole entry): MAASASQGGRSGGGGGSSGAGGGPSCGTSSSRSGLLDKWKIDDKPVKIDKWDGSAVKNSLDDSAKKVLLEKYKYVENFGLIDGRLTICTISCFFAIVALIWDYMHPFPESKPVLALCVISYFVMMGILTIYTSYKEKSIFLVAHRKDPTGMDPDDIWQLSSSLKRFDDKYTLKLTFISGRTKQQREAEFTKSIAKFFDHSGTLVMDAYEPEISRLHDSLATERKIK

[11] = target: T7, AEA-DA lipid probe targets in Neuro2a cells (Mus musculus, UniProt Q9EQI8)
T7 sequence (Q9EQI8 1-283): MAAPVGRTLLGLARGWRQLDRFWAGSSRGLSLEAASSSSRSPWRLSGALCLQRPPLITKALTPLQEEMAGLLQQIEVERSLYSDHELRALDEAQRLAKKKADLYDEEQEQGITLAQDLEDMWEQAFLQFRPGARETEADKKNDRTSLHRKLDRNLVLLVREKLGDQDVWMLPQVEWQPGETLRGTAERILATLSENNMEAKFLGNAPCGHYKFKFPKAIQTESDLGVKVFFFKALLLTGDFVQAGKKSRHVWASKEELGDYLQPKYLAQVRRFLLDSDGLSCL

Sequence of AEA-DA lipid probe targets in Neuro2a cells (Mus musculus, UniProt P57716) (P57716 28-708): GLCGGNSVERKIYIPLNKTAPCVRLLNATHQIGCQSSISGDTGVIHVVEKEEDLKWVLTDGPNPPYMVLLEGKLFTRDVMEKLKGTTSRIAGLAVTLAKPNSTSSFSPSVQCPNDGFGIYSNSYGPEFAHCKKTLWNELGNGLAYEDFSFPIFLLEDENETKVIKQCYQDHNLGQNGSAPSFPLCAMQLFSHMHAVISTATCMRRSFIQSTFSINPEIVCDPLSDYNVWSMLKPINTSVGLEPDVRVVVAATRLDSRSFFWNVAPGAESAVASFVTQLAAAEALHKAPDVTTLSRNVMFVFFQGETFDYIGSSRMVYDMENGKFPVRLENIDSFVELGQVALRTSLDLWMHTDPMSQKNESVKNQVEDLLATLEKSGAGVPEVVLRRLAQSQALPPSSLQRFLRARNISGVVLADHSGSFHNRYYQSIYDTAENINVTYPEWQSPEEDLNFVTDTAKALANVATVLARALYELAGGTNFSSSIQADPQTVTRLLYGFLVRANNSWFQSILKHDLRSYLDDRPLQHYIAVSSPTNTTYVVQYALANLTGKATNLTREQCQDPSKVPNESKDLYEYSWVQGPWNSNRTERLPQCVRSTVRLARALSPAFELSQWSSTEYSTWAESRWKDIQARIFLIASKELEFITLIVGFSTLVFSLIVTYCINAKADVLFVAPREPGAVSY
Sequence of AEA-DA lipid probe targets in Neuro2a cells (Mus musculus, UniProt P29391) (P29391 whole entry): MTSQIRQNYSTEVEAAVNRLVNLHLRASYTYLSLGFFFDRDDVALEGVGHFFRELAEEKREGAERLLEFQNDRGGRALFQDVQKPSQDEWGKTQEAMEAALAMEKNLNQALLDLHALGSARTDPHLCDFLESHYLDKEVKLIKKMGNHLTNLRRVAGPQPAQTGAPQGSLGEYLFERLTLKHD

Question: What does the source list for `C=CCN(C)CCCCCCOc1ccc(C(=O)c2ccc(Br)cc2)c(F)c1` [Ro 48-8071, reference compound]?
Answer: SILAC ratio Ftl1 ([1]; competitor 25 μM): 0.4; SILAC ratio Kpna2 ([2]; competitor 25 μM): 0.9; SILAC ratio Ncstn ([3]; competitor 25 μM): 1.0; SILAC ratio, OPA3 (Q505D7) ([4]; competitor 25 μM): 1.4; SILAC ratio, Opa3 ([4]; competitor 25 μM): 1.4; SILAC ratio Psmb6 ([5]; competitor 25 μM): 1.0; SILAC ratio, Bnip1 ([6]; competitor 25 μM): 1.0; SILAC ratio, Qil1 ([7]; competitor 25 μM): 1.2; SILAC ratio, Creld1 ([8]; competitor 25 μM): 1.4; SILAC ratio, Kdelr2 ([9]; competitor 25 μM): 0.9; SILAC ratio Spcs2 ([10]; competitor 25 μM): 1.2; SILAC ratio Mrpl46 ([11]; competitor 25 μM): 0.9

Question: Which results are given for `CN1CCN(C(=O)c2[nH]c3ccc([N+](=O)[O-])cc3c2-c2ccccc2)CC1` [MJN228, (4-Methylpiperazin-1-yl)(5-nitro-3-phenyl-1H-indol-2-yl)methanone]?
Answer: SILAC ratio Ftl1 ([1]; competitor 100 μM): 1.0; SILAC ratio Kpna2 ([2]; competitor 10 μM): 1.3; SILAC ratio Kpna2 ([2]; competitor 25 μM): 1.2; SILAC ratio Kpna2 ([2]; competitor 50 μM): 0.9; SILAC ratio Kpna2 ([2]; competitor 100 μM): 1.3; SILAC ratio Ncstn ([3]; competitor 10 μM): 1.3; SILAC ratio Ncstn ([3]; competitor 25 μM): 1.6; SILAC ratio Ncstn ([3]; competitor 50 μM): 1.2; SILAC ratio Ncstn ([3]; competitor 100 μM): 1.8; SILAC ratio, OPA3 (Q505D7) ([4]; competitor 25 μM): 1.4; SILAC ratio, Opa3 ([4]; competitor 10 μM): 1.4; SILAC ratio, Opa3 ([4]; competitor 25 μM): 1.4; SILAC ratio, Opa3 ([4]; competitor 50 μM): 1.5; SILAC ratio, Opa3 ([4]; competitor 100 μM): 1.9; SILAC ratio Psmb6 ([5]; competitor 10 μM): 1.3; SILAC ratio Psmb6 ([5]; competitor 25 μM): 1.5; SILAC ratio Psmb6 ([5]; competitor 50 μM): 1.4; SILAC ratio Psmb6 ([5]; competitor 100 μM): 2.5; SILAC ratio, Bnip1 ([6]; competitor 10 μM): 1.2; SILAC ratio, Bnip1 ([6]; competitor 25 μM): 1.1; SILAC ratio, Qil1 ([7]; competitor 10 μM): 1.2; SILAC ratio, Qil1 ([7]; competitor 25 μM): 1.5; SILAC ratio, Qil1 ([7]; competitor 50 μM): 1.7; SILAC ratio, Qil1 ([7]; competitor 100 μM): 2.5; SILAC ratio, Creld1 ([8]; competitor 10 μM): 1.4; SILAC ratio, Creld1 ([8]; competitor 25 μM): 1.8; SILAC ratio, Creld1 ([8]; competitor 50 μM): 2.4; SILAC ratio, Creld1 ([8]; competitor 100 μM): 4.2; SILAC ratio, Kdelr2 ([9]; competitor 10 μM): 1.2; SILAC ratio, Kdelr2 ([9]; competitor 25 μM): 1.2; SILAC ratio, Kdelr2 ([9]; competitor 50 μM): 1.3; SILAC ratio, Kdelr2 ([9]; competitor 100 μM): 1.8; SILAC ratio Spcs2 ([10]; competitor 10 μM): 1.2; SILAC ratio Spcs2 ([10]; competitor 25 μM): 1.4; SILAC ratio Spcs2 ([10]; competitor 50 μM): 1.5; SILAC ratio Spcs2 ([10]; competitor 100 μM): 1.8; SILAC ratio Mrpl46 ([11]; competitor 10 μM): 1.0; SILAC ratio Mrpl46 ([11]; competitor 25 μM): 1.3; SILAC ratio Mrpl46 ([11]; competitor 50 μM): 1.0; SILAC ratio Mrpl46 ([11]; competitor 100 μM): 1.3

Question: Which “SILAC ratio Ftl1” value ([1]; competitor 200 μM) does the source give for `CCCCC/C=C\C/C=C\C/C=C\C/C=C\CCCC(=O)NCCO` [AEA, anandamide, reference compound] here?
Answer: Its value is 1.6.

Question: What about the “SILAC ratio Kpna2” value ([2]; competitor 200 μM) of the same molecule?
Answer: The value was 1.5.

Question: What about the “SILAC ratio Ncstn” value ([3]; competitor 200 μM) of the same molecule?
Answer: Its value is 1.6.

Question: What about the “SILAC ratio Psmb6” value ([5]; competitor 200 μM) of the same molecule?
Answer: Its value is 1.4.

Question: And the “SILAC ratio, Bnip1” value ([6]; competitor 200 μM)?
Answer: The value was 2.1.

Question: What about the “SILAC ratio, Qil1” value ([7]; competitor 200 μM) of the same molecule?
Answer: The value was 1.9.

Question: And the “SILAC ratio, Creld1” value ([8]; competitor 200 μM)?
Answer: Its value is 1.8.

Question: What about the “SILAC ratio, Kdelr2” value ([9]; competitor 200 μM) of the same molecule?
Answer: The value was 1.4.

Question: What about the “SILAC ratio Spcs2” value ([10]; competitor 200 μM) of the same molecule?
Answer: The value was 1.7.

Question: What about the “SILAC ratio Mrpl46” value ([11]; competitor 200 μM) of the same molecule?
Answer: Its value is 1.3.

Question: Which “SILAC ratio Ftl1” value ([1]; competitor 25 μM) does the source give for `CN1CCN(C(=O)c2c(-c3ccccc3)c3cc([N+](=O)[O-])ccc3n2C)CC1` [KML110, (1-Methyl-5-nitro-3-phenyl-1H-indol-2-yl)(4-methylpiperazin-1-yl)methanone] here?
Answer: Its value is 0.9.

Question: And the “SILAC ratio Kpna2” value ([2]; competitor 25 μM)?
Answer: The value was 1.2.

Question: And the “SILAC ratio Ncstn” value ([3]; competitor 25 μM)?
Answer: Its value is 1.3.

Question: What about the “SILAC ratio, Opa3” value ([4]; competitor 25 μM) of the same molecule?
Answer: The value was 1.6.

Question: What about the “SILAC ratio Psmb6” value ([5]; competitor 25 μM) of the same molecule?
Answer: Its value is 1.9.

Question: What about the “SILAC ratio, Bnip1” value ([6]; competitor 25 μM) of the same molecule?
Answer: The value was 1.3.

Question: And the “SILAC ratio, Qil1” value ([7]; competitor 25 μM)?
Answer: The value was 1.5.

Question: What about the “SILAC ratio, Creld1” value ([8]; competitor 25 μM) of the same molecule?
Answer: Its value is 1.8.

Question: What about the “SILAC ratio, Kdelr2” value ([9]; competitor 25 μM) of the same molecule?
Answer: The value was 1.3.

Question: And the “SILAC ratio Spcs2” value ([10]; competitor 25 μM)?
Answer: Its value is 1.6.

Question: And the “SILAC ratio Mrpl46” value ([11]; competitor 25 μM)?
Answer: Its value is 1.3.

Question: Which results are given for `O=C(/C=C/c1cccnc1)NCCCCC1CCN(C(=O)c2ccccc2)CC1` [FK-866, reference compound]?
Answer: SILAC ratio Ftl1 ([1]; competitor 25 μM): 1.6; SILAC ratio Kpna2 ([2]; competitor 25 μM): 1.2; SILAC ratio Ncstn ([3]; competitor 25 μM): 1.1; SILAC ratio, OPA3 (Q505D7) ([4]; competitor 25 μM): 1.1; SILAC ratio, Opa3 ([4]; competitor 25 μM): 1.1; SILAC ratio Psmb6 ([5]; competitor 25 μM): 1.4; SILAC ratio, Qil1 ([7]; competitor 25 μM): 1.2; SILAC ratio, Creld1 ([8]; competitor 25 μM): 1.3; SILAC ratio, Kdelr2 ([9]; competitor 25 μM): 1.2; SILAC ratio Spcs2 ([10]; competitor 25 μM): 1.3; SILAC ratio Mrpl46 ([11]; competitor 25 μM): 1.3
